Laboratory results as given in the RepoRT retention time repository.

Experiment: HILIC, Waters ACQUITY UPLC BEH HILIC, 150 × 2.1 mm, 1.7 µm, 40 °C, 0.6 mL/min, estimated dead time 0.55 min; A: water + 0.1% formic acid + 20 mM ammonium formate, pH 3.5; B: acetonitrile + 0.1% formic acid, pH 3; gradient (min/%B) 0/95 0.1/95 4.6/80 5.5/50 7.0/50 7.1/95 7.2/95 7.3/95 7.4/95 7.5/95 7.6/95 7.7/95 7.8/95 12.50/95 12.65/95
Details: stereoisomer not certain

SMILES | LC retention time
O=C(O)CCc1cnc[nH]1 [Imidazolepropionic acid] | 3.76 min
CC(=O)OC(CC(=O)[O-])C[N+](C)(C)C [L-Acetylcarnitine CAR(2:0)] | 5.03 min
NCCCCC(N)C(=O)O (centres undefined) [Lysine] | 5.98 min
NCCc1ccccc1 [Phenylethylamine] | 2.91 min
Cn1cnc2nc(N)[nH]c(=O)c21 [7-Methylguanine] | 2.19 min
O=C(O)C1CCCN1 (centres undefined) [Proline] | 4.46 min
CC(C)C(=O)OC(CC(=O)[O-])C[N+](C)(C)C (centres undefined) [Isobutyrylcarnitine] | 4.69 min
CCCC(=O)OC(CC(=O)[O-])C[N+](C)(C)C (centres undefined) [Butyrylcarnitine] | 4.69 min
NC(=O)c1cccnc1 [Niacinamide] | 1.07 min
NCCc1ccc(OS(=O)(=O)O)c(O)c1 [Dopamine-4-O-sulfate] | 1.07 min
CNc1ncnc2c1ncn2C1OC(CO)C(O)C1O (centres undefined) [N6-Methyladenosine] | 1.43 min
C[N+](C)(C)CCO [Choline] | 3.97 min
C[n+]1ccccc1 [N-Methylpyridinium] | 3.82 min
C[N+](C)(C)C(Cc1c[nH]c2ccccc12)C(=O)[O-] (centres undefined) [Tryptophan betaine] | 3.91 min
Cn1c(=O)c2c(ncn2C)n(C)c1=O [Caffeine] | 0.85 min
CC(CCC(=O)NCC(=O)O)C1CCC2C3C(O)CC4CC(O)CCC4(C)C3CC(O)C12C (centres undefined) [Glycocholic Acid] | 2.87 min
C[N+](C)(C)CCOP(=O)([O-])OCC(O)CO (centres undefined) [a-Glycerophosphocholine] | 6.02 min
CC(=O)CC(c1ccccc1)c1c(O)c2ccccc2oc1=O (centres undefined) [Warfarin] | 0.673 min
CCCCCC=CC(=O)OC(CC(=O)[O-])C[N+](C)(C)C (centres undefined) [2-Octenoylcarnitine CAR(8:1)] | 4.2 min
O=c1[nH]c(=O)c2[nH]cnc2[nH]1 [Xanthine] | 1.15 min
CSCC1OC(n2cnc3c(N)ncnc32)C(O)C1O (centres undefined) [5'-Methylthioadenosine] | 1.3 min
NCCc1c[nH]c2ccccc12 [Tryptamine] | 2.79 min
CC(C)(CO)C(O)C(=O)NCCC(=O)O (centres undefined) [Pantothenic acid] | 1.13 min
O=C1CCC(c2cccnc2)N1 (centres undefined) [Norcotinine] | 1.6 min
O=C(O)[C@@H]1CCCN1C(=O)[C@@H]1CCCN1 [L-prolyl-L-proline] | 5.4 min
NCCc1ccc(O)c(OS(=O)(=O)O)c1 [Dopamine-3-O-sulfate] | 1.07 min
Nc1ccnc(=O)[nH]1 [Cytosine] | 2.39 min
CC(CCC(=O)NCC(=O)O)C1CCC2C3CCC4CC(O)CCC4(C)C3CC(O)C12C (centres undefined) [Glycodeoxycholic acid] | 1.96 min
CN1CCCC1c1cccnc1 (centres undefined) [Nicotine] | 4.14 min
